{"source": "patent US20160318866A1", "about": "“SUBSTITUTED BIPIPERIDINYL DERIVATIVES” (Bayer Pharma Aktiengesellschaft, priority 2013, published 2016)", "note": "Counter-ions that a name gives are not always drawn.", "data": [{"molecular_target": "T1, human α2C receptor (Homo sapiens, UniProt P18825)", "T1 construct": "expressed in transfected cells; host or cells: CHO cells, also recombinantly expressing chimeric G protein Gαqi3 and mitochondrial obelin (mtOb)", "T1 sequence (P18825 1-462)": "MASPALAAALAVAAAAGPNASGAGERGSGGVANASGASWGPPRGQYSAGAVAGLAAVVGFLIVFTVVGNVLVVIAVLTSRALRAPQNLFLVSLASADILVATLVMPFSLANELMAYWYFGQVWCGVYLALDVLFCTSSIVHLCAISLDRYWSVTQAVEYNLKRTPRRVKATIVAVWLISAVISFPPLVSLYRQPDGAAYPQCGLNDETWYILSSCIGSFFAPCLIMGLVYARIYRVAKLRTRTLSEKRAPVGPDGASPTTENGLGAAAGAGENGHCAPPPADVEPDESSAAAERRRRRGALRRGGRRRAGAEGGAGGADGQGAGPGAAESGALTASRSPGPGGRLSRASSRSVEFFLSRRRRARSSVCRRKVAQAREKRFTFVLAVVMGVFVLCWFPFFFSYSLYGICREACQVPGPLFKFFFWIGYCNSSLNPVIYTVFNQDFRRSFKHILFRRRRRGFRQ", "experiment": "Antagonism against the adrenoreceptor α2C (luminescence, recombinant CHO cell line)", "format": "cell-based", "settings": "not given", "method": "(§1) Antagonism against the adrenoreceptor α1A was tested using a recombinant human α1A receptor CHO cell line which additionally also recombinantly expresses mtAeq (mitochondrial aequorin). Antagonism against the adrenoreceptor α2A was tested using a recombinant human α2A-Gα16 receptor fusion protein CHO cell line (PerkinElmer Life Sciences) which additionally also recombinantly expresses mtAeq. Antagonism against the adrenoreceptor α2B was tested using a recombinant human α2B receptor CHO cell line (PerkinElmer Life Sciences) which additionally also recombinantly expresses mtAeq. Antagonism against the adrenoreceptor α2C was tested using a recombinant human α2C receptor CHO cell line which additionally also recombinantly expresses a chimaric G protein (Gαqi3) and mtOb (mitochondrial obelin).\n(§2) The cells were cultivated at 37° C. and 5% CO2 in Dulbecco's modified Eagle's Medium/NUT mix F12 with L-glutamine which additionally contains 10% (v/v) inactivated foetal calf serum, 1 mM sodium pyruvate, 0.9 mM sodium bicarbonate, 50 U/ml penicillin, 50 μg/ml streptomycin, 2.5 μg/ml amphotericin B and 1 mg/ml Geneticin. The cells were passaged with enzyme-free Hank's-based cell dissociation buffer. All cell culture reagents used are from Invitrogen (Carlsbad, USA).\n(§3) Luminescence measurements were carried out on white 384-well microtitre plates. 2000 cells/well were plated in a volume of 25 μl and cultivated for one day at 30° C. and 5% CO2 in cell culture medium with coelenterazine (α2A and α2B: 5 μg/ml; α1a/c and α2C: 2.5 μg/ml). Serial dilutions of the test substances (10 μl) were added to the cells. After 5 minutes, noradrenalinee was added to the cells (35 μl; final concentrations: 20 nM (α1a/c and α2C) or 200 nM (α2A and α2B)), and the emitted light was measured for 50 seconds using a CCD (charge-coupled device) camera (Hamamatsu Corporation, Shizuoka, Japan) in a light-tight box. The test substances were tested up to a maximum concentration of 10 μM. The IC50 values were calculated from the appropriate dose-response curves.", "units": {"IC50": "nM"}, "values": [{"smiles": "CNCC1(c2ccc(C(=O)N3CCC(N4CCCC(C)C4)CC3)cc2)CCC1", "note": "(centres unmarked) [Example 68, (4-{1-[(Methylamino)methyl]cyclobutyl}phenyl) (3-methyl-1,4′-bipiperidin-1′-yl)methanone trifluoroacetic acid salt]", "IC50": 4}]}, {"molecular_target": "T1, human α2C receptor", "experiment": "Antagonism against the adrenoreceptor α2C (luminescence, recombinant CHO cell line)", "format": "cell-based", "settings": "antagonism against adrenoreceptor α2C; noradrenaline 20 nM; tested up to 10 μM; read-out: IC50", "method": "as §1, §2, §3", "units": {"IC50": "nM"}, "values": [{"smiles": "CC(C)(O)c1ccc(C(=O)N2CCC(N3CCCC(c4nnc(C5CC5)[nH]4)C3)CC2)cc1", "note": "(centres unmarked) [Example 60, [3-(5-Cyclopropyl-4H-1,2,4-triazol-3-yl)-1,4′-bipiperidin-1′-yl][4-(2-hydroxypropan-2-yl)phenyl]methanone]", "IC50": 45}, {"smiles": "CC(C)(O)c1ccc(C(=O)N2CCC(N3CCCC(c4nc(C5CCC5)n[nH]4)C3)CC2)cc1", "note": "(centres unmarked) [Example 61, [3-(5-Cyclobutyl-4H-1,2,4-triazol-3-yl)-1,4′-bipiperidin-1′-yl][4-(2-hydroxypropan-2-yl)phenyl]methanone]", "IC50": 111}, {"smiles": "CCc1nc(C2CCCN(C3CCN(C(=O)c4ccc(C(C)(C)O)cc4)CC3)C2)n[nH]1", "note": "(centres unmarked) [Example 62, [3-(5-Ethyl-1H-1,2,4-triazol-3-yl)-1,4′-bipiperidin-1′-yl][4-(2-hydroxypropan-2-yl)phenyl]methanone]", "IC50": 154}, {"smiles": "Cc1n[nH]c(C2CCCN(C3CCN(C(=O)c4ccc(C(C)(C)O)cc4)CC3)C2)n1", "note": "(centres unmarked) [Example 63, [4-(2-Hydroxypropan-2-yl)phenyl][3-(3-methyl-1H-1,2,4-triazol-5-yl)-1,4′-bipiperidin-1′-yl]methanone]", "IC50": 128}, {"smiles": "CC(C)(O)c1ccc(C(=O)N2CCC(N3CCCC(c4ncn[nH]4)C3)CC2)cc1", "note": "(centres unmarked) [Example 64]", "IC50": 393}, {"smiles": "CC1CCCN(C2CCN(C(=O)c3ccc(C(C)(C)C(=O)NC(C)(C)C)cc3F)CC2)C1", "note": "(centres unmarked) [Example 65, N-tert-Butyl-2-{3-fluoro-4-[(3-methyl-1,4′-bipiperidin-1′-yl)carbonyl]phenyl}-2-methylpropanamide]", "IC50": 134}, {"smiles": "CC1CCCN(C2CCN(C(=O)c3ccc(C4(CNC=O)CCC4)cc3)CC2)C1", "note": "(centres unmarked) [Example 66, N-[(1-{4-[(3-Methyl-1,4′-bipiperidin-1′-yl)carbonyl]phenyl}cyclobutyl)methyl]formamide hydrochloride]", "IC50": 15}, {"smiles": "CC1CCCN(C2CCN(C(=O)c3ccc(C4(CN(C)C=O)CCC4)cc3)CC2)C1", "note": "(centres unmarked) [Example 67, N-Methyl-N-[(1-{4-[(3-methyl-1,4′-bipiperidin-1′-yl)carbonyl]phenyl}cyclobutyl)methyl]formamide trifluoroacetic acid salt]", "IC50": 51}, {"smiles": "CC(C)(O)c1ccc(C(=O)N2CCC(N3CCCC(c4nc(CC5CCC5)n[nH]4)C3)CC2)cc1", "note": "(centres unmarked) [Example 69, {3-[5-(Cyclobutylmethyl)-4H-1,2,4-triazol-3-yl]-1,4′-bipiperidin-1′-yl}[4-(2-hydroxypropan-2-yl)phenyl]methanone]", "IC50": 25}, {"smiles": "CC1CCCN(C2CCN(C(=O)c3ccc(C(=O)NCc4cccc(OC(F)(F)F)c4)cc3)CC2)C1", "note": "(centres unmarked) [Example 70, 4-[(3-Methyl-1,4′-bipiperidin-1′-yl)carbonyl]-N-[3-(trifluoromethoxy)benzyl]benzamide trifluoroacetic acid salt]", "IC50": 190}, {"smiles": "CC1CCCN(C2CCN(C(=O)c3ccc(C(=O)NC(C)(C)c4ccccc4)cc3)CC2)C1", "note": "(centres unmarked) [Example 71, 4-[(3-Methyl-1,4′-bipiperidin-1′-yl)carbonyl]-N-(2-phenylpropan-2-yl)benzamide trifluoroacetic acid salt]", "IC50": 64}, {"smiles": "CC1CCCN(C2CCN(C(=O)c3ccc(C(=O)NC(C)(C)c4ccc(C(F)(F)F)cc4)cc3)CC2)C1", "note": "(centres unmarked) [Example 72, 4-[(3-Methyl-1,4′-bipiperidin-1′-yl)carbonyl]-N-{2-[4-(trifluoromethyl)phenyl]propan-2-yl}benzamide trifluoroacetic acid salt]", "IC50": 116}, {"smiles": "CC1CCCN(C2CCN(C(=O)c3ccc(C(=O)NC(C)(C)c4ccc(Cl)c(Cl)c4)cc3)CC2)C1", "note": "(centres unmarked) [Example 73, N-[2-(3,4-Dichlorophenyl)propan-2-yl]-4-[(3-methyl-1,4′-bipiperidin-1′-yl)carbonyl]benzamide trifluoroacetic acid salt]", "IC50": 80}]}]}
